System: KRAS PDC multicell spheroid viability
Experiment: Anticancer human tumor 825966-067-R-J1-PDC patient-derived colon carcinoma cell line growth inhibition [KRAS2]
Conditions: for IC50: curve of first compound; for viability, T/C: stronger effect = lower value
Procedure, shortened: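 Combination screen of spheroid viability in tumor-cell co-cultures with endothelial (HUVEC) and mesenchymal stem cell stroma. Each agent was tested in half-log dilutions, topping at clinical Cmax or at 10 microM without a known Cmax.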

[1] = second compound 0.0316 µM, first compound 0.0316 µM
[2] = second compound 0.1 µM, first compound 0.0316 µM
[3] = second compound 0.316 µM, first compound 0.0316 µM
[4] = second compound 1 µM, first compound 0.0316 µM
[5] = second compound 3.16 µM, first compound 0.0316 µM
[6] = second compound 0.0316 µM, first compound 0.1 µM
[7] = second compound 0.0316 µM, first compound 0.316 µM
[8] = second compound 0.0316 µM, first compound 1 µM
[9] = second compound 0.0316 µM, first compound 3.16 µM
[10] = second compound 0.0316 µM, first compound 10 µM
[11] = second compound 0.1 µM, first compound 0.1 µM
[12] = second compound 0.1 µM, first compound 0.316 µM
[13] = second compound 0.1 µM, first compound 1 µM
[14] = second compound 0.1 µM, first compound 3.16 µM
[15] = second compound 0.1 µM, first compound 10 µM
[16] = second compound 0.316 µM, first compound 0.1 µM
[17] = second compound 0.316 µM, first compound 0.316 µM
[18] = second compound 0.316 µM, first compound 1 µM
[19] = second compound 0.316 µM, first compound 3.16 µM
[20] = second compound 0.316 µM, first compound 10 µM
[21] = second compound 1 µM, first compound 0.1 µM
[22] = second compound 1 µM, first compound 0.316 µM
[23] = second compound 1 µM, first compound 1 µM
[24] = second compound 1 µM, first compound 3.16 µM
[25] = second compound 1 µM, first compound 10 µM
[26] = second compound 3.16 µM, first compound 0.1 µM
[27] = second compound 3.16 µM, first compound 0.316 µM
[28] = second compound 3.16 µM, first compound 1 µM
[29] = second compound 3.16 µM, first compound 3.16 µM
[30] = second compound 3.16 µM, first compound 10 µM
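Further: spheroids exposed to compounds for 7 days.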
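Wherever viability, T/C is given: 100% = DMSO vehicle control viability.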

## CC(=O)Nc1cccc(-n2c(=O)n(C3CC3)c(=O)c3c(Nc4ccc(I)cc4F)n(C)c(=O)c(C)c32)c1 + C=CC(=O)N1CCN(c2nc(OCC3CCCN3C)nc3c2CCN(c2cccc4cccc(C)c24)C3)CC1CC#N
Second compound 0.0316 µM
  IC50: 0.0316 µM
Second compound 0.1 µM
  IC50: > 0.0316 µM
Second compound 0.316 µM
  IC50: 0.0231 µM
Second compound 1 µM
  IC50: > 0.0316 µM
Second compound 3.16 µM
  IC50: 0.00599 µM
Second compound 0.0316 µM, first compound 0.0001 µM
  viability, T/C: 92%
Second compound 0.0316 µM, first compound 0.000316 µM
  viability, T/C: 94.8%
Second compound 0.0316 µM, first compound 0.001 µM
  viability, T/C: 119%
Second compound 0.0316 µM, first compound 0.00316 µM
  viability, T/C: 128%
Second compound 0.0316 µM, first compound 0.01 µM
  viability, T/C: 101%
[1]
  viability, T/C: 49.8%
Second compound 0.1 µM, first compound 0.0001 µM
  viability, T/C: 84%
Second compound 0.1 µM, first compound 0.000316 µM
  viability, T/C: 92.6%
Second compound 0.1 µM, first compound 0.001 µM
  viability, T/C: 97.5%
Second compound 0.1 µM, first compound 0.00316 µM
  viability, T/C: 111%
Second compound 0.1 µM, first compound 0.01 µM
  viability, T/C: 94.9%
[2]
  viability, T/C: 50.5%
Second compound 0.316 µM, first compound 0.0001 µM
  viability, T/C: 83.6%
Second compound 0.316 µM, first compound 0.000316 µM
  viability, T/C: 92.1%
Second compound 0.316 µM, first compound 0.001 µM
  viability, T/C: 96.7%
Second compound 0.316 µM, first compound 0.00316 µM
  viability, T/C: 110%
Second compound 0.316 µM, first compound 0.01 µM
  viability, T/C: 92.1%
[3]
  viability, T/C: 33.9%
Second compound 1 µM, first compound 0.0001 µM
  viability, T/C: 110%
Second compound 1 µM, first compound 0.000316 µM
  viability, T/C: 95%
Second compound 1 µM, first compound 0.001 µM
  viability, T/C: 102%
Second compound 1 µM, first compound 0.00316 µM
  viability, T/C: 106%
Second compound 1 µM, first compound 0.01 µM
  viability, T/C: 71.4%
[4]
  viability, T/C: 53.4%
Second compound 3.16 µM, first compound 0.0001 µM
  viability, T/C: 62.2%
Second compound 3.16 µM, first compound 0.000316 µM
  viability, T/C: 107%
Second compound 3.16 µM, first compound 0.001 µM
  viability, T/C: 105%
Second compound 3.16 µM, first compound 0.00316 µM
  viability, T/C: 121%
Second compound 3.16 µM, first compound 0.01 µM
  viability, T/C: 5.74%
[5]
  viability, T/C: 16.1%

## COc1cc(Nc2ncc3c(n2)-c2ccc(Cl)cc2C(c2c(F)cccc2OC)=NC3)ccc1C(=O)O + C=CC(=O)N1CCN(c2nc(OCC3CCCN3C)nc3c2CCN(c2cccc4cccc(C)c24)C3)CC1CC#N
Second compound 0.0316 µM
  IC50: > 10 µM
Second compound 0.1 µM
  IC50: > 10 µM
Second compound 0.316 µM
  IC50: > 10 µM
Second compound 1 µM
  IC50: > 10 µM
Second compound 3.16 µM
  IC50: 4.43 µM
[1]
  viability, T/C: 136%
[6]
  viability, T/C: 129%
[7]
  viability, T/C: 144%
[8]
  viability, T/C: 137%
[9]
  viability, T/C: 138%
[10]
  viability, T/C: 127%
[2]
  viability, T/C: 129%
[11]
  viability, T/C: 142%
[12]
  viability, T/C: 123%
[13]
  viability, T/C: 129%
[14]
  viability, T/C: 122%
[15]
  viability, T/C: 140%
[3]
  viability, T/C: 124%
[16]
  viability, T/C: 154%
[17]
  viability, T/C: 112%
[18]
  viability, T/C: 134%
[19]
  viability, T/C: 129%
[20]
  viability, T/C: 141%
[4]
  viability, T/C: 104%
[21]
  viability, T/C: 150%
[22]
  viability, T/C: 153%
[23]
  viability, T/C: 135%
[24]
  viability, T/C: 121%
[25]
  viability, T/C: 114%
[5]
  viability, T/C: 45%
[26]
  viability, T/C: 130%
[27]
  viability, T/C: 73.1%
[28]
  viability, T/C: 104%
[29]
  viability, T/C: 67.1%
[30]
  viability, T/C: 8.84%

## COc1cc2nccc(Oc3ccc(NC(=O)C4(C(=O)Nc5ccc(F)cc5)CC4)cc3)c2cc1OC + C=CC(=O)N1CCN(c2nc(OCC3CCCN3C)nc3c2CCN(c2cccc4cccc(C)c24)C3)CC1CC#N
Second compound 0.0316 µM
  IC50: 1.64 µM
Second compound 0.1 µM
  IC50: 1.8 µM
Second compound 0.316 µM
  IC50: 1.66 µM
Second compound 1 µM
  IC50: 1.59 µM
Second compound 3.16 µM
  IC50: 0.688 µM
[1]
  viability, T/C: 96.4%
[6]
  viability, T/C: 106%
[7]
  viability, T/C: 84%
[8]
  viability, T/C: 83.1%
[9]
  viability, T/C: 4.36%
[10]
  viability, T/C: 8.53%
[2]
  viability, T/C: 117%
[11]
  viability, T/C: 97.3%
[12]
  viability, T/C: 74.1%
[13]
  viability, T/C: 86.3%
[14]
  viability, T/C: 15.3%
[15]
  viability, T/C: 7.78%
[3]
  viability, T/C: 122%
[16]
  viability, T/C: 91.6%
[17]
  viability, T/C: 107%
[18]
  viability, T/C: 79.7%
[19]
  viability, T/C: 12%
[20]
  viability, T/C: 7.79%
[4]
  viability, T/C: 103%
[21]
  viability, T/C: 78.7%
[22]
  viability, T/C: 78.1%
[23]
  viability, T/C: 81.3%
[24]
  viability, T/C: 3.62%
[25]
  viability, T/C: 2%
[5]
  viability, T/C: 86.1%
[26]
  viability, T/C: 83.6%
[27]
  viability, T/C: 108%
[28]
  viability, T/C: 29.5%
[29]
  viability, T/C: 0.34%
[30]
  viability, T/C: 0.17%
